Assay results reported in ChEMBL document CHEMBL1201862, “PubChem BioAssay data set” (2004).
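Following 48 hours of exposure in 96-well plates, responses at five concentrations were used to interpolate endpoints linearly. GI50 marks 50% less growth.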 Active and inactive are the calls of the source. Rule as the data show it: active = GI50 up to about 1.1 µM and inactive = higher.

Experiments:
Assay in all cases: NCI-60 cell line screen, 48 h
UACC-257 = tested on: UACC-257
RPMI-8226 = tested on: RPMI-8226
RXF 393 = tested on: RXF 393
SK-MEL-28 = tested on: SK-MEL-28
TK-10 = tested on: TK-10
HCT-116 = tested on: HCT-116
EKVX = tested on: EKVX
NCI-H23 = tested on: NCI-H23
CAKI-1 = tested on: CAKI-1
IGROV-1 = tested on: IGROV-1
A549 = tested on: A549
MDA-MB-231 = tested on: MDA-MB-231
HCT-15 = tested on: HCT-15
HT-29 = tested on: HT-29
SW-620 = tested on: SW-620
KM12 = tested on: KM12
MOLT-4 = tested on: MOLT-4
NCI-H460 = tested on: NCI-H460
SNB-19 = tested on: SNB-19
OVCAR-8 = tested on: OVCAR-8
NCI-H226 = tested on: NCI-H226
SNB-75 = tested on: SNB-75
SK-OV-3 = tested on: SK-OV-3
786-0 = tested on: 786-0
UO-31 = tested on: UO-31
SF-295 = tested on: SF-295
NCI-H522 = tested on: NCI-H522
COLO 205 = tested on: COLO 205
MDA-MB-435 = tested on: MDA-MB-435
SF-539 = tested on: SF-539
OVCAR-5 = tested on: OVCAR-5
A498 = tested on: A498
OVCAR-4 = tested on: OVCAR-4
SN12C = tested on: SN12C
DU-145 = tested on: DU-145
Malme-3M = tested on: Malme-3M
T47D = tested on: T47D
NCI/ADR-RES = tested on: NCI/ADR-RES
BT-549 = tested on: BT-549
OVCAR-3 = tested on: OVCAR-3
HOP-62 = tested on: HOP-62
HOP-92 = tested on: HOP-92
ACHN = tested on: ACHN
SK-MEL-5 = tested on: SK-MEL-5
LOX IMVI = tested on: LOX IMVI
MDA-N = tested on: MDA-N
SF-268 = tested on: SF-268
U-251 = tested on: U-251
M14 = tested on: M14
PC-3 = tested on: PC-3
Hs-578T = tested on: Hs-578T
HCC 2998 = tested on: HCC 2998
UACC-62 = tested on: UACC-62

Q: `Cn1c(C(C#N)c2nc(Cl)ncc2Br)nc2ccccc21` (stereo not given) was tested. Which GI50 (UACC-257) did it give?
A: > 100 µM (inactive)

Q: And the GI50 (RPMI-8226)?
A: > 100 µM (inactive)

Q: And the GI50 (RXF 393)?
A: > 100 µM (inactive)

Q: What about the GI50 (SK-MEL-28) of the same compound?
A: > 100 µM (inactive)

Q: What about the GI50 (TK-10) of the same compound?
A: > 100 µM (inactive)

Q: And the GI50 (HCT-116)?
A: > 100 µM (inactive)

Q: And the GI50 (EKVX)?
A: > 100 µM (inactive)

Q: And the GI50 (NCI-H23)?
A: > 100 µM (inactive)

Q: What about the GI50 (CAKI-1) of the same compound?
A: > 100 µM (inactive)

Q: And the GI50 (IGROV-1)?
A: > 100 µM (inactive)

Q: And the GI50 (A549)?
A: > 100 µM (inactive)

Q: And the GI50 (MDA-MB-231)?
A: > 100 µM (inactive)

Q: And the GI50 (HCT-15)?
A: > 100 µM

Q: What about the GI50 (HT-29) of the same compound?
A: > 100 µM (inactive)

Q: And the GI50 (SW-620)?
A: > 100 µM (inactive)

Q: And the GI50 (KM12)?
A: > 100 µM (inactive)

Q: What about the GI50 (MOLT-4) of the same compound?
A: > 100 µM (inactive)

Q: And the GI50 (NCI-H460)?
A: > 100 µM (inactive)

Q: And the GI50 (SNB-19)?
A: > 100 µM (inactive)

Q: What about the GI50 (OVCAR-8) of the same compound?
A: > 100 µM (inactive)

Q: And the GI50 (NCI-H226)?
A: > 100 µM (inactive)

Q: And the GI50 (SNB-75)?
A: 82 µM (inactive)

Q: And the GI50 (SK-OV-3)?
A: > 100 µM (inactive)

Q: And the GI50 (786-0)?
A: > 100 µM (inactive)

Q: And the GI50 (UO-31)?
A: > 100 µM (inactive)

Q: What about the GI50 (SF-295) of the same compound?
A: > 100 µM (inactive)

Q: What about the GI50 (NCI-H522) of the same compound?
A: > 100 µM (inactive)

Q: What about the GI50 (COLO 205) of the same compound?
A: > 100 µM (inactive)

Q: What about the GI50 (MDA-MB-435) of the same compound?
A: > 100 µM (inactive)

Q: What about the GI50 (SF-539) of the same compound?
A: 44.5 µM (inactive)

Q: What about the GI50 (OVCAR-5) of the same compound?
A: > 100 µM (inactive)

Q: What about the GI50 (A498) of the same compound?
A: > 100 µM (inactive)

Q: And the GI50 (OVCAR-4)?
A: > 100 µM (inactive)

Q: And the GI50 (SN12C)?
A: > 100 µM (inactive)

Q: And the GI50 (DU-145)?
A: > 100 µM (inactive)

Q: What about the GI50 (Malme-3M) of the same compound?
A: > 100 µM (inactive)

Q: And the GI50 (T47D)?
A: > 100 µM (inactive)

Q: What about the GI50 (NCI/ADR-RES) of the same compound?
A: > 100 µM (inactive)

Q: What about the GI50 (BT-549) of the same compound?
A: > 100 µM (inactive)

Q: And the GI50 (OVCAR-3)?
A: > 100 µM (inactive)

Q: And the GI50 (HOP-62)?
A: > 100 µM (inactive)

Q: And the GI50 (HOP-92)?
A: > 100 µM (inactive)

Q: And the GI50 (ACHN)?
A: > 100 µM (inactive)

Q: What about the GI50 (SK-MEL-5) of the same compound?
A: > 100 µM (inactive)

Q: What about the GI50 (LOX IMVI) of the same compound?
A: > 100 µM (inactive)

Q: What about the GI50 (MDA-N) of the same compound?
A: > 100 µM (inactive)

Q: What about the GI50 (SF-268) of the same compound?
A: > 100 µM (inactive)

Q: And the GI50 (U-251)?
A: > 100 µM (inactive)

Q: What about the GI50 (M14) of the same compound?
A: > 100 µM (inactive)

Q: How did the GI50 (UACC-257) turn out when `CC12C=CC(C)(C3C(=O)C4C(C(=O)C31)C1(C)C=CC4(C)[S+]1[O-])[S+]2[O-]` (stereo not given) was run?
A: 71.9 µM (inactive)

Q: And the GI50 (RXF 393)?
A: > 100 µM (inactive)

Q: And the GI50 (TK-10)?
A: > 100 µM (inactive)

Q: And the GI50 (PC-3)?
A: > 100 µM (inactive)

Q: What about the GI50 (EKVX) of the same compound?
A: > 100 µM (inactive)

Q: What about the GI50 (NCI-H23) of the same compound?
A: > 100 µM (inactive)

Q: And the GI50 (CAKI-1)?
A: > 100 µM (inactive)

Q: What about the GI50 (IGROV-1) of the same compound?
A: 83.9 µM (inactive)

Q: What about the GI50 (A549) of the same compound?
A: > 100 µM (inactive)

Q: And the GI50 (MDA-MB-231)?
A: > 100 µM (inactive)

Q: What about the GI50 (Hs-578T) of the same compound?
A: > 100 µM (inactive)

Q: And the GI50 (HCT-15)?
A: 87.3 µM

Q: What about the GI50 (HT-29) of the same compound?
A: 47.6 µM (inactive)

Q: And the GI50 (KM12)?
A: > 100 µM (inactive)

Q: What about the GI50 (NCI-H460) of the same compound?
A: 53.1 µM (inactive)

Q: And the GI50 (SNB-19)?
A: 50.6 µM (inactive)

Q: And the GI50 (OVCAR-8)?
A: 56 µM (inactive)

Q: What about the GI50 (NCI-H226) of the same compound?
A: > 100 µM (inactive)

Q: What about the GI50 (SNB-75) of the same compound?
A: 57.5 µM (inactive)

Q: What about the GI50 (SK-OV-3) of the same compound?
A: > 100 µM (inactive)

Q: And the GI50 (786-0)?
A: 51.2 µM (inactive)

Q: And the GI50 (UO-31)?
A: > 100 µM (inactive)

Q: And the GI50 (SF-295)?
A: > 100 µM (inactive)

Q: What about the GI50 (NCI-H522) of the same compound?
A: 38.4 µM (inactive)

Q: And the GI50 (COLO 205)?
A: 34.9 µM (inactive)

Q: And the GI50 (SF-539)?
A: 25.4 µM (inactive)

Q: And the GI50 (OVCAR-5)?
A: > 100 µM (inactive)

Q: What about the GI50 (DU-145) of the same compound?
A: > 100 µM (inactive)

Q: What about the GI50 (Malme-3M) of the same compound?
A: 83.4 µM (inactive)

Q: What about the GI50 (HCC 2998) of the same compound?
A: > 100 µM (inactive)

Q: What about the GI50 (NCI/ADR-RES) of the same compound?
A: 64.7 µM (inactive)

Q: And the GI50 (BT-549)?
A: > 100 µM (inactive)

Q: And the GI50 (OVCAR-3)?
A: > 100 µM (inactive)

Q: And the GI50 (HOP-62)?
A: > 100 µM (inactive)

Q: And the GI50 (ACHN)?
A: > 100 µM (inactive)

Q: And the GI50 (SK-MEL-5)?
A: 21.9 µM (inactive)

Q: What about the GI50 (LOX IMVI) of the same compound?
A: 81.5 µM (inactive)

Q: And the GI50 (MDA-N)?
A: > 100 µM (inactive)

Q: What about the GI50 (SF-268) of the same compound?
A: > 100 µM (inactive)

Q: What about the GI50 (UACC-62) of the same compound?
A: 74 µM (inactive)

Q: What about the GI50 (M14) of the same compound?
A: > 100 µM (inactive)
